Test results from paper PMC5361737, “Potent and Selective KDM5 Inhibitor Stops Cellular Demethylation of H3K4me3 at Transcription Start Sites and Proliferation of MM1S Myeloma Cells” (Cell Chemical Biology, 2017).
“Also recorded” adds a separate entry of the source.

Key:
[1] = tested on: endogenous KDM5 demethylases; experiment: IF assay of endogenous H3K4me3 in untransfected HeLa cells; type: cell-based, human; settings: 48 hr
Procedure: In brief, cells were transiently transfected with either the FLAG-tagged WT or mutant demethylase described above, using Lipofectamine 2000 (Life Technologies). Four hours after transfection the cells were treated with serial dilutions of compound for 24 hr. The cells were subsequently fixed and stained with an anti-FLAG antibody (Sigma F3165) as well as an anti-methylated histone antibody (H3K4me3 Diagenode C15410003, H3K9me2 Abcam ab1220, H3K9me3 Abcam ab8898, H3K27me3 Millipore 07–449, or H3K36me2 Active Motif 61019). The secondary antibodies were labeled with either Alexa Fluor 488 or 568 (Life Technologies). Image acquisition was conducted using the Operetta High Content Imaging System (PerkinElmer) and image analysis was performed with the Columbus software (PerkinElmer). After the DAPI-stained nuclei were automatically identified, a minimum threshold for anti-FLAG intensity was set so that only cells highly expressing the demethylase were analyzed. Assays assessing the endogenous H3K4me3 methyl mark changes were performed accordingly without overexpressing KDM5 after compounds treatment for 48 hr.
Figure S1 related to Figure 2 Inhibition of KDM4/5 mediated H3K4me3
(A) EC50 curves of KDOAM-20, KDOAM-21 and KDOAM-32 in KDM5B and KDM4C (B)
and KDOAM-32 in untransfected HeLa cells.
(1 picture or pasted object on this page, not shown here)

ETA (h) = ETA (h) (Homo sapiens, UniProt P25101); experiment: Cerep Express Panel, agonist radioligand; type: binding; settings: read-out: % Inhibition of reference (10 µM)
Chain of ETA (h) (P25101 21-427): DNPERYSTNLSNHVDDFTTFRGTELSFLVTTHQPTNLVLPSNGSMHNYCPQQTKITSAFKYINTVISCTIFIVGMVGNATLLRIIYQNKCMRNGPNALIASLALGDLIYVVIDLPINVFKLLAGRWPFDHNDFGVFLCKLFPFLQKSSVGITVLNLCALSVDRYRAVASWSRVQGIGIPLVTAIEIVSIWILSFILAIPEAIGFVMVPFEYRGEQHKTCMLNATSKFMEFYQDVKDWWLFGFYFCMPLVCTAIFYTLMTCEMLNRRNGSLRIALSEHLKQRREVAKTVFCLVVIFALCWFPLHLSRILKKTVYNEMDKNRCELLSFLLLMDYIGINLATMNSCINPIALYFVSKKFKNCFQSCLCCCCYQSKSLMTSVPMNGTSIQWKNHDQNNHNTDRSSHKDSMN

[2] = tested on: panel of 55 receptors and enzymes; experiment: CEREP express panel of 55 common off-targets; type: binding; settings: 10 µM
EP4 (h) = EP4 (h) (Homo sapiens, UniProt P35408); experiment: Cerep Express Panel, agonist radioligand; type: binding; settings: read-out: % Inhibition of reference (10 µM)
Chain of EP4 (h) (P35408 whole entry): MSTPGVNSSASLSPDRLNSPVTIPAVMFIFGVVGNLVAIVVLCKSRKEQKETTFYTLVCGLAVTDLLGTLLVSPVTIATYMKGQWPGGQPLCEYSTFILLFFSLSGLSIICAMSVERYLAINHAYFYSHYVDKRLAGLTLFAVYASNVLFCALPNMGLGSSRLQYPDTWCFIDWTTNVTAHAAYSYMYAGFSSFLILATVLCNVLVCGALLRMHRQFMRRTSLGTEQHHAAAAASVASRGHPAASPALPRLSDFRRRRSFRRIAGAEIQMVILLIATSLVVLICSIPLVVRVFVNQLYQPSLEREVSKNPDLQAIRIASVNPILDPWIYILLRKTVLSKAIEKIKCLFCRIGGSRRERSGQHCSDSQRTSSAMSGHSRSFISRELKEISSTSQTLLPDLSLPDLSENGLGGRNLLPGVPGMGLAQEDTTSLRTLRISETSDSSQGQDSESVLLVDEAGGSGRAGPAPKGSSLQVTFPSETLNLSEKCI

BZD (central) = experiment: Cerep Express Panel, agonist radioligand; type: binding
[3] = Liver microsomes stability; type: in vitro ADME; settings: human liver microsomes
GAL2 (h) = GAL2 (h) (Homo sapiens, UniProt O43603); experiment: Cerep Express Panel, agonist radioligand; type: binding; settings: read-out: % Inhibition of reference (10 µM)
Y1 (h) = Y1 (h) (Homo sapiens, UniProt P25929); experiment: Cerep Express Panel, agonist radioligand; type: binding; settings: read-out: % Inhibition of reference (10 µM)
Chain of Y1 (h) (P25929 whole entry): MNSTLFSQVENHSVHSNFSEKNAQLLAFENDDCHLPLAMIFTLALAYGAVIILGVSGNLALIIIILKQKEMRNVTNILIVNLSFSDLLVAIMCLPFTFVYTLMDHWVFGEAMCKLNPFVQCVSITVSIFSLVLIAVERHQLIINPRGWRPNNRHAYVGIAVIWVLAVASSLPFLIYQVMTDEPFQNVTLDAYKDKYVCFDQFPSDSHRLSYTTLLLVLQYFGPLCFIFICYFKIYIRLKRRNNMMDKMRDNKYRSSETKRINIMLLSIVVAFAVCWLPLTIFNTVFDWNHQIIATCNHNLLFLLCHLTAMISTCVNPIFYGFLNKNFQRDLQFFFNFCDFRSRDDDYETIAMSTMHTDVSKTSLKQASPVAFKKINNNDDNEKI

5-HT1A (h) = 5-HT1A (h) (Homo sapiens, UniProt P08908); experiment: Cerep Express Panel, agonist radioligand; type: binding; settings: read-out: % Inhibition of reference (10 µM)
Chain of 5-HT1A (h) (P08908 whole entry): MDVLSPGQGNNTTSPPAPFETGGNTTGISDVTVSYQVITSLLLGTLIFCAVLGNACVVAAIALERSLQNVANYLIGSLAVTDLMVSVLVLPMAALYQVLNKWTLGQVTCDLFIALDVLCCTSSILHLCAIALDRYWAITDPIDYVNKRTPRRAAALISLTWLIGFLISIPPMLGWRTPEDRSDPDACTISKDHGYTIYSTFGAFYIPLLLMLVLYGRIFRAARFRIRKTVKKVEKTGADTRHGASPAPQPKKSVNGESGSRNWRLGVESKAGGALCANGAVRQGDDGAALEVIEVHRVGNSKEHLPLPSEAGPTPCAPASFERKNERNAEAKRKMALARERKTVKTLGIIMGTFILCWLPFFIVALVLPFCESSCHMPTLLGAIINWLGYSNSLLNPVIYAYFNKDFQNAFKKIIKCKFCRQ

H2 (h) = H2 (h) (Homo sapiens, UniProt P25021); experiment: Cerep Express Panel, antagonist radioligand; type: binding; settings: read-out: % Inhibition of reference (10 µM)
Chain of H2 (h) (P25021 whole entry): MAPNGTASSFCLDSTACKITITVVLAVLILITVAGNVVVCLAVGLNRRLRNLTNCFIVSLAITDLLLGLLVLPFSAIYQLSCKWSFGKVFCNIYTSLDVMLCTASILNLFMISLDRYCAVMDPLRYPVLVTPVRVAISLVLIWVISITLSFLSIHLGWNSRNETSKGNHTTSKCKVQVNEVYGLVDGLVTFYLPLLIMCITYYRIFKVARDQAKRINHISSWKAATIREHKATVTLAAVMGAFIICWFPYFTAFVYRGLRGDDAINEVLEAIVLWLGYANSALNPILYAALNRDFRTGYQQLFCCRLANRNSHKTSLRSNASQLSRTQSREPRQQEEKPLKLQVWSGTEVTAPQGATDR

MM1S cells = experiment: Cell-cycle analysis; type: cell-based, human
FIH = FIH (Homo sapiens, UniProt Q9NWT6); experiment: 2-Oxoglutarate oxygenase assay panel, MALDI-TOF assay; type: biochemical
Chain of FIH (Q9NWT6 whole entry): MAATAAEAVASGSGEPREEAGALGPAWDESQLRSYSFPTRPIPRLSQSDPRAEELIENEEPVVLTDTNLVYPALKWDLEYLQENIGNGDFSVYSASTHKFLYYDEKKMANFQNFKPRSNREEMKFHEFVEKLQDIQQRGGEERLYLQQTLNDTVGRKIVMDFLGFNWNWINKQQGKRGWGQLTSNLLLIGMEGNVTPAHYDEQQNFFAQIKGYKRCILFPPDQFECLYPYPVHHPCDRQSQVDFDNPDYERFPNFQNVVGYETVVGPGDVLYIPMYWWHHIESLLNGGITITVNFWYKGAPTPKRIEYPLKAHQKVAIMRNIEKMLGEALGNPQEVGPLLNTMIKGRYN

sst (non-selective) = experiment: Cerep Express Panel, agonist radioligand; type: binding; settings: 10 µM
[4] = biological target: T1, norepinephrine transporter (h) (Homo sapiens, UniProt P23975); experiment: Cerep Express Panel, antagonist radioligand; type: binding; settings: read-out: % Inhibition of reference (10 µM)
T1 construct: CEREP
T1 sequence (P23975 whole entry): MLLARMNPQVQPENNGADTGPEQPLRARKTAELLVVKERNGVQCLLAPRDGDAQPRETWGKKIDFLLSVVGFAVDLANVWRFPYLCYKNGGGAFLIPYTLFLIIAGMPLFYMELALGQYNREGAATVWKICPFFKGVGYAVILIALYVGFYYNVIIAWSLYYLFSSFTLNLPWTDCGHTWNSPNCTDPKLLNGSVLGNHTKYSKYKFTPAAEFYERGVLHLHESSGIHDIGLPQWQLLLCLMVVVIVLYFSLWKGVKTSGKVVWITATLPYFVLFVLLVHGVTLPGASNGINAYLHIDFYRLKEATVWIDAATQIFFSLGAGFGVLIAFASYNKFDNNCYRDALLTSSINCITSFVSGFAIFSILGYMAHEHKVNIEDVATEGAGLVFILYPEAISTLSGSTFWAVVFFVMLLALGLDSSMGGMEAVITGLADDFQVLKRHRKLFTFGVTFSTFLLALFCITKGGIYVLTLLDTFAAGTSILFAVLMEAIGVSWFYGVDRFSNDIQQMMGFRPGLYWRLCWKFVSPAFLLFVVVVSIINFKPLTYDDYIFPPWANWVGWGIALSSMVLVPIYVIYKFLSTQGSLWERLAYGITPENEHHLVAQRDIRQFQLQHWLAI

CXCR2 (IL-8B) (h) = biological target: T2, CXCR2 (IL-8B) (h) (Homo sapiens, UniProt P25025); experiment: Cerep Express Panel, agonist radioligand; type: binding; settings: read-out: % Inhibition of reference (10 µM)
T2 sequence (P25025 1-360): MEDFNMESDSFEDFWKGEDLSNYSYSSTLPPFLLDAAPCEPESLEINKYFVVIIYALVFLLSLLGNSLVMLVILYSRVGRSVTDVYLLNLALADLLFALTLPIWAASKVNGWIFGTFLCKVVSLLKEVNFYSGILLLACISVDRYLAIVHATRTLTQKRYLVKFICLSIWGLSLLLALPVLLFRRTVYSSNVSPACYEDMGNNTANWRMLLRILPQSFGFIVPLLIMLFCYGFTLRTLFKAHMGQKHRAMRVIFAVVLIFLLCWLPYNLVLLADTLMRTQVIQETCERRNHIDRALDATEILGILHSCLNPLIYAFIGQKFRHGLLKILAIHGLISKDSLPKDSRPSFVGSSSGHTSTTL

5-HT6 (h) = 5-HT6 (h) (Homo sapiens, UniProt P50406); experiment: Cerep Express Panel, agonist radioligand; type: binding; settings: read-out: % Inhibition of reference (10 µM)
Chain of 5-HT6 (h) (P50406 whole entry): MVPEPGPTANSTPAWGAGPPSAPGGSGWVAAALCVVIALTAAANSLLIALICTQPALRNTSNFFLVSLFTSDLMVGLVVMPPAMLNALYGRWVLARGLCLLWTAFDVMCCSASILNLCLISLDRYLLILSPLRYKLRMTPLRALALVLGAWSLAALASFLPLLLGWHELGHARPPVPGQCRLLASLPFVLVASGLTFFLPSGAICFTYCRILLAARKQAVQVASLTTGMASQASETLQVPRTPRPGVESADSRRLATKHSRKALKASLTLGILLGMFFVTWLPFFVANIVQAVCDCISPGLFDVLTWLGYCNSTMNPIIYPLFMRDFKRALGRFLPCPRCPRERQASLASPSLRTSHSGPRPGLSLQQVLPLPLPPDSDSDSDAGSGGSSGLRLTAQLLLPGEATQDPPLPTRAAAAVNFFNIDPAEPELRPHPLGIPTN

5-HT7 (h) = 5-HT7 (h) (Homo sapiens, UniProt P34969); experiment: Cerep Express Panel, agonist radioligand; type: binding; settings: read-out: % Inhibition of reference (10 µM)
Chain of 5-HT7 (h) (P34969 whole entry): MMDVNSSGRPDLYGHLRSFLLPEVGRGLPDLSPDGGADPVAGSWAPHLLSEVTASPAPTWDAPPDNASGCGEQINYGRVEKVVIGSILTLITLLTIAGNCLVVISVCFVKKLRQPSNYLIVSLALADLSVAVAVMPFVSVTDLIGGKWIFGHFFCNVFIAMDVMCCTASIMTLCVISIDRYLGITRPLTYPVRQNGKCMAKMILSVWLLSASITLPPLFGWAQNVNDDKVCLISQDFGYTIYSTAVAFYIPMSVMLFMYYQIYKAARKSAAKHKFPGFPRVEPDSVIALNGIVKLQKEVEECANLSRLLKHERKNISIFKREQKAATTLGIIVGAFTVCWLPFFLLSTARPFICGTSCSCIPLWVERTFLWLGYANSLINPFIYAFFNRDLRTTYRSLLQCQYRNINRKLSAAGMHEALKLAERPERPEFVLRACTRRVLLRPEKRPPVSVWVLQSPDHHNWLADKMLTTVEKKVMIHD

other 2-OG oxygenases = experiment: Selectivity panel, other 2-OG oxygenases (AlphaScreen or MALDI-TOF); type: biochemical; settings: AlphaScreen or MALDI-TOF enzymatic assays; read-out: no inhibition below (any of the other 2-OG oxygenases)
[5] = tested on: KDM5A and KDM5C (other KDM5 family members); experiment: IF assay, HeLa cells overexpressing the other KDM5 family members; type: cell-based, human; settings: overexpression IF assay, 24 hr, read-out: inhibitory concentration, other KDM5 family members
From the text: The human cervical carcinoma cell line HeLa was obtained from the American Type Cultures Collection and maintained in Eagle's minimal essential media (Sigma-Aldrich) supplemented with 10% heat-inactivated fetal bovine serum (Life Technologies). Full-length cDNA for KDM5B (JARID1B, Q9UGL1, cDNA), KDM5C (JARID1C, P41229, IMAGE 5492114), KDM4B (JMJD2B, O94953, gift from ICR), KDM4C (JMJD2C, Q9H3R0, 8143862), KDM3A (JMJD1A, Q9Y4C1, 4823253), KDM2A (FBXL11, Q9Y2K7, 5534384), and KDM6B (JMJD3, O15054, cDNA) were amplified by PCR from either an MGC clone or a commercial cDNA source, or received as a gift from collaborators and cloned into pDONR-221 vector using Gateway BP reaction producing Gateway entry clones.
[…]. Mutations were introduced into full-length KDM Gateway entry clones using 15 cycles of the QuikChange II PCR protocol (Agilent Technologies). […]
In brief, cells were transiently transfected with either the FLAG-tagged WT or mutant demethylase described above, using Lipofectamine 2000 (Life Technologies). […] After the DAPI-stained nuclei were automatically identified, a minimum threshold for anti-FLAG intensity was set so that only cells highly expressing the demethylase were analyzed. […]

CB1 (h) = CB1 (h) (Homo sapiens, UniProt P21554); experiment: Cerep Express Panel, agonist radioligand; type: binding; settings: read-out: % Inhibition of reference (10 µM)
Chain of CB1 (h) (P21554 whole entry): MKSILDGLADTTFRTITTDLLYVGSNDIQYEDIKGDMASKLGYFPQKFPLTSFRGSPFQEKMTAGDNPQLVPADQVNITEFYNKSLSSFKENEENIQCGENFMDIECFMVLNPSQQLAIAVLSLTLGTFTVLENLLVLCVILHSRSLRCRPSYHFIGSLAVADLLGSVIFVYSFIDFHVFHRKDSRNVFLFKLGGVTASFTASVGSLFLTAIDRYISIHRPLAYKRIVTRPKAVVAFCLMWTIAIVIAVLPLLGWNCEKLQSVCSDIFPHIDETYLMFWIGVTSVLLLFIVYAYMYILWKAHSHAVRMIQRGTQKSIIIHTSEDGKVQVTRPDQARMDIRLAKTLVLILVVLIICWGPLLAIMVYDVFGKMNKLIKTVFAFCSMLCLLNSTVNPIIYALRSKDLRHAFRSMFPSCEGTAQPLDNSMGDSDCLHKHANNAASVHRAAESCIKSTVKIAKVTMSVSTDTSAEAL

EGLN1 = EGLN1 (Homo sapiens, UniProt Q9GZT9); experiment: 2-Oxoglutarate oxygenase assay panel, MALDI-TOF assay; type: biochemical; settings: read-out: pIC50 EGLN1 (converted)
Chain of EGLN1 (Q9GZT9 whole entry, species assumed): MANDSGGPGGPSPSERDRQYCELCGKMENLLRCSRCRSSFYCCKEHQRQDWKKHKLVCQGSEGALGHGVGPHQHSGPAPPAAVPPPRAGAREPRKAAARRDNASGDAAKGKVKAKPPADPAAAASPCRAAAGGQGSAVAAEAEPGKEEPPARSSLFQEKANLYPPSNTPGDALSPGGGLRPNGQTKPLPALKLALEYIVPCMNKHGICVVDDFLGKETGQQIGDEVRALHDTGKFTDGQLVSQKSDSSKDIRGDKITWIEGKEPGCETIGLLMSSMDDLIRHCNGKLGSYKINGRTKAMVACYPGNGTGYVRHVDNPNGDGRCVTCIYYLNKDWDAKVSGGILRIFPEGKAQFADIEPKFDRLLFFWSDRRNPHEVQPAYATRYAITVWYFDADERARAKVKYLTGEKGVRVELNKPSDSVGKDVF

For CCN(CCN(C)C)C(=O)CNCc1cc(C(N)=O)ccn1 [KDOAM-25], which “inhibition of endogenous KDM5 demethylases, potency in words” value [1] is on record?
The value was “potencies similar to those seen in the overexpression assay”.

And the inhibition at 10 µM (ETA (h))?
The inhibition at 10 µM was -6%.

And the “off-target inhibition in CEREP express panel, in words” value [2]?
Its value is “no inhibition; also recorded: no off-target activity; also recorded: devoid of off-target activity”.

What about the inhibition at 10 µM (EP4 (h)) of the same molecule?
Its inhibition at 10 µM is -15%.

And the “% Inhibition of reference (10 µM)” value (BZD (central))?
The value was -42%.

And the “intrinsic clearance, in words” value [3]?
The value was “low intrinsic clearance”.

And the microsomal CLint ([3]; read-out: HLM Clint)?
The microsomal CLint was 11.9 µL/min/mg.

What about the inhibition at 10 µM (GAL2 (h)) of the same molecule?
The inhibition at 10 µM was -4%.

And the inhibition at 10 µM (Y1 (h))?
Its inhibition at 10 µM is -7%.

What about the inhibition at 10 µM (5-HT1A (h)) of the same molecule?
Its inhibition at 10 µM is -7%.

What about the inhibition at 10 µM (H2 (h)) of the same molecule?
Its inhibition at 10 µM is -16%.

And the cell-cycle effect (MM1S cells)?
Its cell-cycle effect is “G1 cell-cycle arrest”.

And the IC50 (FIH)?
The IC50 was over 100 µM.

What about the “% Inhibition of reference (10 µM)” value (sst (non-selective)) of the same molecule?
Its value is 0%.

What about the inhibition at 10 µM [4] of the same molecule?
Its inhibition at 10 µM is -6%.

What about the inhibition at 10 µM (CXCR2 (IL-8B) (h)) of the same molecule?
The inhibition at 10 µM was 5%.

What about the inhibition at 10 µM (5-HT6 (h)) of the same molecule?
The inhibition at 10 µM was -3%.

What about the inhibition at 10 µM (5-HT7 (h)) of the same molecule?
Its inhibition at 10 µM is -10%.

What about the IC50 (other 2-OG oxygenases) of the same molecule?
Its IC50 is at least 4.8 µM.

And the IC50 [5]?
The IC50 was over 100 µM.

And the inhibition at 10 µM (CB1 (h))?
The inhibition at 10 µM was -1%.

What about the IC50 (EGLN1) of the same molecule?
Its IC50 is over 100 µM.
